# Experimental data published in patent US20230142803A1, “NATURAL KILLER CELLS AND ILC3 CELLS AND USES THEREOF” (Celularity Inc., priority 2015, published 2023).
# Experiments:
# three-stage NK cells = test: Varying third medium components, flow cytometry evaluation; assay type: cell-based; details: presence of SR1 in the third medium
# From the text: A flow cytometry panel (Table 7) was utilized for evaluation on days 0, 7, 14, 21, 28, and 35, including cell surface markers CD56, CD3, CD117, CD94, IL1R1, CD11a, CD34, and CD14/CD15 and intracellular markers RORγt, AHR, and perforin.
# CD34+ cells = test: Three-stage method with SR-1 or CH223191 in Stage 1 and Stage 2 media; assay type: cell-based; details: for effects on fold expansion, cell purity (CD56+CD3−), and cytotoxicity of K562 cells: 10 μM and 1 μM, K562 at 10:1 (E:T)
# Procedure: CD34^+ cells are cultured in the following medium formulations for the indicated number of days, and aliquots of cells are taken for assessment of cell count, cell viability, characterization of natural killer cell differentiation and functional evaluation.
# Stage 1 medium: 90% Stem Cell Growth Medium (SCGM) (CellGro®), 10% Human Serum-AB, supplemented with 4.5 U/mL low molecular weight heparin (LMWH), 25 ng/mL recombinant human thrombopoietin (TPO), 25 ng/mL recombinant human Flt3L, 27 ng/mL recombinant human stem cell factor (SCF), 25 ng/mL recombinant human IL-7, 0.05 ng/mL recombinant human IL-6 (500-fold), 0.25 ng/mL recombinant human granulocyte colony-stimulating factor (G-CSF) (50-fold), 0.01 ng/mL recombinant human granulocyte-macrophage colony-stimulating factor (GM-CSF) (500-fold), 0.10% gentamicin, and 1 to 10 μm StemRegenin-1 (SR-1).
# Stage 2 medium: 90% SCGM, 10% Human Serum-AB, supplemented with 4.5 U/mL low molecular weight heparin (LMWH), 25 ng/mL recombinant human Flt3L, 27 ng/mL recombinant human SCF, 25 ng/mL recombinant human IL-7, 20 ng/mL recombinant human IL-15, 0.05 ng/mL recombinant human IL-6 (500-fold), 0.25 ng/mL recombinant human G-CSF (50-fold), 0.01 ng/mL recombinant human GM-CSF (500-fold), 0.10% gentamicin, and 1 to 10 μm SR1.
# Stage 3 medium: 90% […]™, 10% Human Serum-AB, 0.025 mM 2-mercaptoethanol (55 mM), supplemented with 22 ng/mL recombinant human SCF, 1000 U/mL recombinant human IL-2, 20 ng/mL recombinant human IL-7, 20 ng/mL recombinant human IL-15, 0.05 ng/mL recombinant human IL-6 (500-fold), 0.25 ng/mL recombinant human G-CSF (50-fold), 0.01 ng/mL recombinant human GM-CSF (500-fold), and 0.10% gentamicin.
# Stemregenin-1 (SR-1) was evaluated as a component of Stage 1 and Stage 2 media using the three-stage method outlined in Example 1, above, at concentrations of 1 μM, 10 μM, and 30 μM. The same concentrations of CH223191 in the three-stage method were also evaluated.
Compound,effect on NK (CD11a+) vs ILC3 (CD11a−) cell production (three-stage NK cells),"effects on fold expansion, cell purity (CD56+CD3−), and cytotoxicity of K562 cells (CD34+ cells)",cytotoxicity of NK cells produced (CD34+ cells; SR-1 at 10 μM in Stage 1 and Stage 2 media vs 1 μM and 30 μM)
"CC(C)n1cnc2c(NCCc3ccc(O)cc3)nc(-c3csc4ccccc34)nc21 [SR-1, 4-(2-(2-(benzo[b]thien-3-yl)-9-isopropyl-9H-purin-6-ylamino)ethyl)phenol]",favor NK (CD11a+) cell production,Comparable effects,higher cytotoxicity than the other two concentrations tested
"Cc1ccccc1/N=N/c1ccc(NC(=O)c2ccnn2C)c(C)c1 [CH223191, 1-methyl-N-(2-methyl-4-(2-(2-methylphenyl)diazenyl)phenyl)-1H-pyrazole-5-carboxamide]",–,Comparable effects,–
